Laboratory results from paper PMC10118748 (Science translational medicine, 2022).

Experiments:
[1] = 10 mM DTT vs PBS
cynomolgus PD-L1 = details: flow staining of SDGF-PDL1B1G1-expressing cells
[2] = ref [58]; cited from earlier work
PC3 tumors [3] = details: 14 days after treatment, 1 nmol + ATC (fig. S10)
PC3 tumors [4] = details: cohort 2, ATC + durvalumab, 1 or 0.1 nmol/dose
murine PD-L1 = details: ref [47]; cited from earlier work

## CC[C@H](C)[C@@H]1NC(=O)[C@H](CCCNC(=N)N)NC(=O)[C@H](CCC(=O)O)NC(=O)[C@H](C)NC(=O)[C@@H]2CSSC[C@H](NC(=O)[C@H](Cc3c[nH]cn3)NC(=O)[C@H](C)NC(=O)[C@H](CCCNC(=N)N)NC(=O)CNC(=O)[C@H]([C@@H](C)CC)NC(=O)[C@H]([C@@H](C)O)NC(=O)[C@H](Cc3ccc(O)cc3)NC(=O)[C@H](CO)NC(=O)[C@H](CCCCN)NC1=O)C(=O)N[C@@H](CO)C(=O)NCC(=O)N[C@@H](CCC(N)=O)C(=O)N[C@@H](Cc1ccc(O)cc1)C(=O)N[C@@H](Cc1ccccc1)C(=O)N[C@@H](CC(=O)O)C(=O)N[C@@H](C(C)C)C(=O)N[C@@H](Cc1c[nH]c3ccccc13)C(=O)N[C@@H](CCCCN)C(=O)N[C@H]1CSSC[C@H](NC(=O)[C@H](Cc3c[nH]cn3)NC(=O)[C@H](C(C)C)NC(=O)[C@H](CCCCN)NC(=O)[C@@H](NC(=O)[C@H](CC(=O)O)NC(=O)[C@H](CCC(=O)O)NC(=O)[C@H](CCC(=O)O)NC(=O)[C@H](CO)NC(=O)CN)CSSC[C@@H](C(=O)N[C@@H](C)C(=O)N[C@@H](C)C(=O)N3CCC[C@H]3C(=O)O)NC(=O)[C@H](Cc3c[nH]cn3)NC(=O)[C@H](CC(=O)O)NC(=O)[C@H](CC(C)C)NC1=O)C(=O)N[C@@H](C(C)C)C(=O)N[C@@H](CCCCN)C(=O)N[C@@H](CCC(=O)O)C(=O)N[C@@H](Cc1c[nH]c3ccccc13)C(=O)N[C@@H](C)C(=O)N[C@@H](C)C(=O)N[C@@H](Cc1ccc(O)cc1)C(=O)N[C@@H](CCCCN)C(=O)N[C@@H](C)C(=O)N2 [PDL1B1G1]
[1]
  RP-HPLC mobility shift upon reduction: substantial mobility shift
Cynomolgus PD-L1
  binding to cynomolgus PD-L1 relative to murine PD-L1: stronger than seen with murine PD-L1

## atezolizumab
[2]
  linked adverse effect: Type 1 diabetes has been reported

## durvalumab
PC3 tumors [3]
  ATC infiltration and activation in tumor (human CD8, granzyme B): recruitment of trace numbers of ATCs infiltrating the tumor
PC3 tumors [4]
  tumor growth suppression: No tumor growth suppression
Murine PD-L1
  murine cross-reactivity: non-murine-cross-reactive
